In ChEMBL document CHEMBL6127087 (Eur J Med Chem, 2024):
Calls of active or inactive are those of the source. No cut-off for these calls is given here.

Columns and labels:
[1] = target: T1, P2Y purinoceptor 14 (Homo sapiens) (UniProt Q15391); experiment: Antagonist activity at human P2Y14R stably expressed in HEK293 cells assessed as inhibition of UDPG-induced cAMP accumulation preincubated with compound for 30 mins followed by UDPG addition by cAMP-GloTM assay; assay type: functional, cell-based
T1 sequence (whole entry): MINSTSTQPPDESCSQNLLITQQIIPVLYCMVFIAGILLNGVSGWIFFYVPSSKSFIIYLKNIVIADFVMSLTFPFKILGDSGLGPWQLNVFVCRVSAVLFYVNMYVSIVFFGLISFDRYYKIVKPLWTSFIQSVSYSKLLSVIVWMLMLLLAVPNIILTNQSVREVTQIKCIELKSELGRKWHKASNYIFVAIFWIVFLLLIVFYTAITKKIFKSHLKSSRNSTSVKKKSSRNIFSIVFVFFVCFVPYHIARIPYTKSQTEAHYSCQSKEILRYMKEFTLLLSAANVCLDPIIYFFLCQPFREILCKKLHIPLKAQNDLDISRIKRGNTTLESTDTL

[2] = tested on: HEK-293T; experiment: Cytotoxicity against HEK293T cells assessed as reduction in cell survival at >10 uM incubated for 12 to 24 hrs by CCK8 assay; assay type: toxicity, cell-based; settings: human, time 12-24 hrs
[3] = target: Cytochrome P450 3A4 (Homo sapiens, UniProt P08684); experiment: Inhibition of CYP3A4 in human liver microsomes using midazolam as substrate preincubated for 10 mins followed by NADPH addition and measured after 10 mins by LC-MS/MS analysis; assay type: ADME, Microsome
Sequence of Cytochrome P450 3A4 (P08684 whole entry): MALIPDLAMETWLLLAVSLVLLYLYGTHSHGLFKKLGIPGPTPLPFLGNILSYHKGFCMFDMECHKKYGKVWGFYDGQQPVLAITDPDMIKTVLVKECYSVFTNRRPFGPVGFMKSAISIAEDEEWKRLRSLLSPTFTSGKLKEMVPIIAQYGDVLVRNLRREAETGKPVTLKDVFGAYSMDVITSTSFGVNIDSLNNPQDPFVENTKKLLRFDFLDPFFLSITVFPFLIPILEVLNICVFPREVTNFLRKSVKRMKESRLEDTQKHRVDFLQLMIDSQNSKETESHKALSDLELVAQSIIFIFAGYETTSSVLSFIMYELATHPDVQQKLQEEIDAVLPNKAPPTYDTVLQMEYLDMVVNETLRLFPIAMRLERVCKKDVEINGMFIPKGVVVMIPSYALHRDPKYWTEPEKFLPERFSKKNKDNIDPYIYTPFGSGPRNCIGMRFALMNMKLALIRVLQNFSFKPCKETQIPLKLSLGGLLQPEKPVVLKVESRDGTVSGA

[4] = target: T2, Cytochrome P450 1A2 (Homo sapiens, UniProt P05177); experiment: Inhibition of CYP1A2 in human liver microsomes using phenacetin as substrate preincubated for 10 mins followed by NADPH addition and measured after 10 mins by LC-MS/MS analysis; assay type: ADME, Microsome
T2 sequence (P05177 whole entry): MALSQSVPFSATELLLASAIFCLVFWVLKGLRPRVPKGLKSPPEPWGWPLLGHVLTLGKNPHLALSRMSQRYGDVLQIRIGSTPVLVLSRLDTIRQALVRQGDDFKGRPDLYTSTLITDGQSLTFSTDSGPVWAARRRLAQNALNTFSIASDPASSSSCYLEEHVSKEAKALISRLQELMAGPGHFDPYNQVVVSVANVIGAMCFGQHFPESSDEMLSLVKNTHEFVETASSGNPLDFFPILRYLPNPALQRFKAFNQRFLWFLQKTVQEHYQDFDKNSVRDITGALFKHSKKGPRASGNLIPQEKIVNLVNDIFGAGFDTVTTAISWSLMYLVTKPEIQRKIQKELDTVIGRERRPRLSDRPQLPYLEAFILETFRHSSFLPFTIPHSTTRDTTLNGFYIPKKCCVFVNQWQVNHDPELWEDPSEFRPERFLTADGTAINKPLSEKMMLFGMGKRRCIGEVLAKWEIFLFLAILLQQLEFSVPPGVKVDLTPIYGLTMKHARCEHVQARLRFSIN

[5] = Metabolic stability in human liver microsomes assessed as intrinsic clearance preincubated for 10 mins followed by NADPH addition and measured upto 60 mins by LC-MS/MS analysis; assay type: ADME, Microsome; settings: time < 70 min, read-out: CLH
[6] = Metabolic stability in human liver microsomes assessed as half-life preincubated for 10 mins followed by NADPH addition and measured upto 60 mins by LC-MS/MS analysis; assay type: ADME, Microsome; settings: time < 70 min
[7] = Tmax in male Sprague-Dawley rat at 10 mg/kg, iv measured after 24 hrs by LC-MS/MS analysis; assay type: ADME, organism-based; settings: male, Sprague-Dawley, in vivo, read-out: Tmax (converted)
[8] = Cmax in male Sprague-Dawley rat at 20 mg/kg, po measured after 24 hrs by LC-MS/MS analysis; assay type: ADME, organism-based; settings: male, Sprague-Dawley, in vivo, read-out: Cmax
[9] = Half-life in male Sprague-Dawley rat at 20 mg/kg, po measured after 24 hrs by LC-MS/MS analysis; assay type: ADME, organism-based; settings: male, Sprague-Dawley, in vivo
[10] = Clearance in male Sprague-Dawley rat at 20 mg/kg, po measured after 24 hrs by LC-MS/MS analysis; assay type: ADME, organism-based; settings: in vivo
[11] = tested on: Mus musculus; experiment: Anti-inflammatory activity in LPS-induced male C57BL/6 mouse model of acute […] injury assessed as improvement in pulmonary edema by measuring reduction in wet to dry ratio of lung at 2 to 6 mg/kg, IG preadministered with compound for 7 days followed by LPS administration and measured after 24 hrs; assay type: functional, organism-based; settings: dose 2-6 mg/kg, time 8.0 day
[12] = tested on: Mus musculus; experiment: (§1) Anti-inflammatory activity in LPS-induced male C57BL/6 mouse model of acute […] injury assessed as reduction in IL-6 level in BALF at 2 to 6 mg/kg, IG preadministered with compound for 7 days followed by LPS administration and measured after 24 hrs by ELISA; assay type: functional, organism-based; settings: dose 2-6 mg/kg, time 8.0 day
[13] = tested on: Mus musculus; experiment: as §1, with “infiltration of immune cells by measuring decrease” for “IL-6 level”, “lymphocytes count” for “BALF”, “hrs” for “hrs by ELISA”; assay type: functional, organism-based; settings: dose 2-6 mg/kg, time 8.0 day
[14] = tested on: Mus musculus; experiment: as §1, with “infiltration of immune cells by measuring decrease” for “IL-6 level”, “monocytes count” for “BALF”, “hrs” for “hrs by ELISA”; assay type: functional, organism-based; settings: dose 2-6 mg/kg, time 8.0 day
[15] = tested on: Mus musculus; experiment: Anti-inflammatory activity in LPS-induced male C57BL/6 mouse model of acute […] injury assessed as reduction in MPO level in BALF at 2 to 6 mg/kg, IG preadministered with compound for 7 days followed by LPS administration and measured after 24 hrs by ELISA; assay type: functional, organism-based; settings: dose 2-6 mg/kg, time 8.0 day
[16] = tested on: Mus musculus; experiment: Anti-inflammatory activity in LPS-induced male C57BL/6 mouse model of acute […] injury assessed as reduction in dsDNA level in BALF at 2 to 6 mg/kg, IG preadministered with compound for 7 days followed by LPS administration and measured after 24 hrs by ELISA; assay type: functional, organism-based; settings: dose 2-6 mg/kg, time 8.0 day
[17] = tested on: Mus musculus; experiment: Anti-inflammatory activity in LPS-induced male C57BL/6 mouse model of acute […] injury assessed as reduction in neutrophil elastase level in BALF at 2 to 6 mg/kg, IG preadministered with compound for 7 days followed by LPS administration and measured after 24 hrs by ELISA; assay type: functional, organism-based; settings: dose 2-6 mg/kg, time 8.0 day
[18] = tested on: Mus musculus; experiment: (§2) Anti-inflammatory activity in LPS-induced male C57BL/6 mouse model of acute […] injury assessed as reduction in interstitial edema in lung at 2 to 6 mg/kg, IG preadministered with compound for 7 days followed by LPS administration and measured after 24 hrs by H and E staining based histopathological analysis; assay type: functional, organism-based; settings: dose 2-6 mg/kg, time 8.0 day
[19] = tested on: Mus musculus; experiment: as §2, with “absence of lesion” for “reduction in interstitial edema”, “lung parenchyma” for “lung”; assay type: functional, organism-based; settings: dose 2-6 mg/kg, time 8.0 day
[20] = tested on: Mus musculus; experiment: Anti-inflammatory activity in LPS-induced male C57BL/6 mouse model of acute […] injury assessed as inhibition of CXCL1 mRNA expression at 2 to 6 mg/kg, IG preadministered with compound for 7 days followed by LPS administration and measured after 24 hrs by RT-PCR analysis; assay type: functional, organism-based; settings: dose 2-6 mg/kg, time 8.0 day
[21] = tested on: Mus musculus; experiment: In vivo inhibition of NLRP3 activation in LPS-induced male C57BL/6 mouse model of acute […] injury assessed as reduction in NLRP3 level in lung at 2 to 6 mg/kg, IG preadministered with compound for 7 days followed by LPS administration and measured after 24 hrs by Western blot analysis; assay type: functional, organism-based; settings: dose 2-6 mg/kg, time 8.0 day

- Activity [1]: inactive
- IC50 [3]: > 50 µM
- IC50 [4]: > 50 µM
- microsomal CLint [5]: 18.6 µL/min/mg
- half-life [6]: 213 min
- Tmax [7]: 28 min
- Cmax [8]: 2940 ng/mL
- half-life [9]: 312 min
- CL/F [10]: 28.3 mL/min/kg
Structure (SMILES): O=C(O)CCC(=O)N1N=C(c2ccc[nH]2)CC1c1cnc2ccccc2c1 (stereo unspecified)
- Activity [2]: Non-Toxic
- Activity [11]: Active
- Activity [12]: Active
- Activity [13]: Active
- Activity [14]: Active
- Activity [15]: Active
- Activity [16]: Active
- Activity [17]: Active
- Activity [18]: Active
- Activity [19]: Active
- Activity [20]: Active
- inhibition [21]: Active
